ED50 data for 22 compounds are collected here from patent US4681879A, “11-substituted 5H,11H-pyrrolo[2,1-c][1,4]benzoxazepines as antipsychotic and analgesic agents” (Hoechst-Roussel Pharmaceuticals Inc., priority 1985, dated 1987).

As a reminder, the ED50 is the midpoint of the dose-response relation.

Where a name gives a salt, the structure may show the parent alone.

Test [1] has as its system apomorphine climbing. Briefly: Antipsychotic activity, climbing mice assay (apomorphine). Format: in vivo, mice (CK-1 male). To be noted: Mus musculus; ip, 30 minutes prior to apomorphine 1.5 mg/kg sc. On the procedure: Antipsychotic activity is determined in the climbing mice assay by methods similar to those described by P. Protais, et al., Psychopharmacol., 50, 1 (1976) and B. Costall, Eur. J. Pharmacol., 50, 39 (1978).
The subject CK-1 male mice (23-27 grams) are group-housed under standard laboratory conditions. The mice are individually placed in wire mesh stick cages (4"×4" by 10") and are allowed one hour for adaptation and exploration of the new environment. Then apomorphine is injected subcutaneously at 1.5 mg/kg, a dose causing climbing in all subjects for 30 minutes. Compounds to be tested for antipsychotic activity are injected intraperitoneally 30 minutes prior to the apomorphine challenge at a screening dose of 10 mg/kg.
For evaluation of climbing, 3 readings are taken at 10, 20 and 30 minutes after apomorphine administration according to the following scale: […]
______________________________________
4 paws on bottom (no climbing)
2 paws on the wall (rearing)
4 paws on the wall (full climb)
Mice consistently climbing before the injection of apomorphine are discarded.
With full-developed apomorphine climbing, the animals are hanging onto the cage walls, rather motionless, over longer periods of time. By contrast, climbs due to mere motor stimulation usually last only a few seconds.
The climbing scores are individually totaled (maximum score: 6 per mouse over 3 readings) and the total score of the control group (vehicle intraperitoneally-apomorphine subcutaneously) is seet to 100%. ED50 values with 95% confidence limits, calculated by a linear regression analysis of some of the compounds of this invention are presented in Table 1.

Test [2] concerns 2-phenyl-1,4-benzoquinone-induced writhing. The experiment in a line: Analgesic activity, 2-phenyl-1,4-benzoquinone-induced writhing test in mice. The following applies: Mus musculus, sc; read-out: ANALGESIC ACTIVITY (Phenylquinone Writhing) ED50. Format: in vivo. The text has this: Compounds of the present invention are useful as analgesic agents due to their ability to alleviate pain in mammals. […] Exptl. Biol. Med., 95, 729 (1957)].

In the case of `O=C(CCN1CCC(C2Oc3ccccc3Cn3cccc32)CC1)c1ccc(Cl)cc1` (stereo not drawn) [1-(4-Chlorophenyl)-3-[4-]5H,11H-pyrrolo[2,1-c][1,4]benzoxazepin-11-yl]-1-piperidinyl]-1-propanone], in test [1], the ED50 came out at 5.5 mg/kg. With `O=C(CCN1CCC(C2Oc3ccccc3Cn3cccc32)CC1)c1ccccc1.O=C(O)C(=O)O` (stereo not drawn) [1-Phenyl-3-[4-[5H,11H-pyrrolo[2,1-c][1,4]benzoxazepin-11-yl]-1-piperidinyl]-1-propanone oxalate], the ED50 in test [2] and in test [1] was 1.6 mg/kg in each case. Consider `CCCCN1CCC(C2Oc3ccccc3Cn3cccc32)CC1` (stereo not drawn) [11-[(1-Butyl)piperidin-4-yl]-5H,11H-pyrrolo[2,1-c][1,4]benzoxazepine], for which the ED50 in test [2] stood at 0.4 mg/kg; in test [1] it was 3.8 mg/kg. The matching figures for `O=C(O)C(=O)O.O=c1[nH]c2ccccc2n1CCN1CCC(C2Oc3ccccc3Cn3cccc32)CC1` (stereo not drawn) [11-{1-[2-(1,3-Dihydro-2-oxo-2H-benzimidazol-1-yl)ethyl]piperidin-4-yl}-5H,11H-pyrrolo[2,1-c][1,4]benzoxazepine oxalate]: 0.9 mg/kg and 3.2 mg/kg. Compound `COc1cccc(CCN2CCC(C3Oc4ccccc4Cn4cccc43)CC2)c1OC.O=C(O)/C=C/C(=O)O` (stereo not drawn) [11-{1-[2-(2,3-Dimethoxyphenyl)ethyl]piperidin-4-yl}-5H,11H-pyrrolo[2,1-c][1,4]benzoxazepine fumarate] returned an ED50 in test [1] of 3 mg/kg.

Take `c1csc(CCN2CCC(C3Oc4ccccc4Cn4cccc43)CC2)c1` (stereo not drawn) [11-{1-[2-(2-Thienyl)ethyl]piperidin-4-yl}-5H,11H-pyrrolo[2,1-c][1,4benzoxazepine]: it took a dose of 1.8 mg/kg to reach the 50% effect level in test [1] (ED50). For `COc1ccc(CCN2CCC(C3Oc4ccccc4Cn4cccc43)CC2)cc1OC` (stereo not drawn) [11-{1-[2-(3,4-Dimethoxyphenyl)ethyl]piperidin-4-yl}-5H,11H-pyrrolo[2,1-c][1,4]benzoxazepine], the ED50 in test [2] amounted to 0.1 mg/kg; in test [1], 0.3 mg/kg.

`COc1cccc(CCN2CCC(C3Oc4ccccc4Cn4cccc43)CC2)c1` (stereo not drawn) [11-{1-[2-(3-Methoxyphenyl)ethyl]piperidin-4-yl}-5H,11H-pyrrolo[2,1-c][1,4]benzoxazepine] displayed an ED50 in test [1] of 0.9 mg/kg. `Clc1ccc(CCN2CCC(C3Oc4ccccc4Cn4cccc43)CC2)cc1` (stereo not drawn) [11-{1-[2-(4-Chlorophenylethyl)]piperidin-4-yl}-5H,11H-pyrrolo[2,1-c][1,4]benzoxazepine]: in test [1], the ED50 stood at 2.1 mg/kg. In the case of `CN(C)c1ccc(CCN2CCC(C3Oc4ccccc4Cn4cccc43)CC2)cc1` (stereo not drawn) [11-{1-[2-(4-Dimethylaminophenylethyl)]piperidin-4-yl}-5H,11H-pyrrolo[2,1-c][1,4]benzoxazepine], the values for the ED50 in test [2] and in test [1] were 0.4 mg/kg and 1.2 mg/kg, respectively. For `CCOc1ccc(CCN2CCC(C3Oc4ccccc4Cn4cccc43)CC2)cc1` (stereo not drawn) [11-{1-[2-(4-Ethoxyphenylethyl)]piperidin-4-yl}-5H,11H-pyrrolo[2,1-c][1,4]benzoxaxepine], in that order: 1.9 mg/kg and 1.3 mg/kg. Take `Fc1ccc(CCN2CCC(C3Oc4ccccc4Cn4cccc43)CC2)cc1.O=C(O)C(=O)O` (stereo not drawn) [11-{1-[2-(4-Fluorophenyl)ethyl]piperidin-4-yl}-5H,11H-pyrrolo[2,1-c][1,4]benzoxazepine oxalate]: it took a dose of 3.1 mg/kg to reach the 50% effect level in test [1] (ED50). Same read-out and setting: the figure for `Oc1ccc(CCN2CCC(C3Oc4ccccc4Cn4cccc43)CC2)cc1` (stereo not drawn) [11-{1-[2-(4-Hydroxyphenyl)ethyl]piperidin-4-yl}-5H,11H-pyrrolo[2,1-c][1,4]benzoxazepine] is 0.3 mg/kg. Take `COc1ccc(CCN2CCC(C3Oc4ccccc4Cn4cccc43)CC2)cc1.O=C(O)C(=O)O` (stereo not drawn) [11-{1-[2-(4-Methoxyphenyl)ethyl]piperidin-4-yl}-5H,11H-pyrrolo[2,1-c][1,4]benzoxazepine oxalate]: the ED50 in test [2] and in test [1] was 0.3 mg/kg each time. In test [1], `Cc1ccc(CCN2CCC(C3Oc4ccccc4Cn4cccc43)CC2)cc1` (stereo not drawn) [11-{1-[2-(4-Methylphenyl)ethyl]piperidin-4-yl}-5H,11H-pyrrolo[2,1-c][1,4]benzoxazepine] showed an ED50 of 1.2 mg/kg. Turning to `O=[N+]([O-])c1ccc(CCN2CCC(C3Oc4ccccc4Cn4cccc43)CC2)cc1` (stereo not drawn) [11-{1-[2-(4-Nitrophenylethyl)]piperidin-4-yl}-5H,11H-pyrrolo[2,1-c][1,4]benzoxazepine], the 50% effective dose (ED50) in test [2] is 4.1 mg/kg; in test [1], 3.5 mg/kg. Take `O=C(O)C(=O)O.c1ccc(CCN2CCC(C3Oc4ccccc4Cn4cccc43)CC2)cc1` (stereo not drawn) [11-{1-[2-(Phenyl)ethyl]piperidin-4-yl}-5H,11H-pyrrolo[2,1-c][1,4]benzoxazepine oxalate]: the 50% effect level in test [1] (ED50) was put at a dose of 3.1 mg/kg. As for `O=C(O)C(=O)O.O=c1[nH]c2ccccc2n1CCCN1CCC(C2Oc3ccccc3Cn3cccc32)CC1` (stereo not drawn) [11-{1-[3-(1,3-Dihydro-2-oxo-2H-benzimidazol-1-yl)propyl]piperidin-4-yl}-5H,11H-pyrrolo[2,1-c][1,4]benzoxazepine oxalate], the ED50 was found to be 0.3 mg/kg in test [2] and 0.7 mg/kg in test [1]. On to `Cc1[nH]c2ccccc2c1CCCN1CCC(C2Oc3ccccc3Cn3cccc32)CC1.O=C(O)C(=O)O` (stereo not drawn) [11-{1-[3-(2-Methylindol-3-yl)propyl]piperidin-4-yl}-5H,11H-pyrrolo[2,1-c][1,4]benzoxazepine oxalate], for which the ED50 in test [1] was 2.3 mg/kg. With `Fc1ccc2c(CCCN3CCC(C4Oc5ccccc5Cn5cccc54)CC3)noc2c1.O=C(O)C(=O)O` (stereo not drawn) [11-{1-[3-(6-Fluoro-1,2-benzisoxazol-3-yl)propyl]piperidin-4-yl}-5H,11H-pyrrolo[2,1-c][1,4]benzoxazepine oxalate], the figures for the ED50 in test [2] and in test [1] were 5.1 mg/kg and 2.1 mg/kg, respectively. In the case of `c1ccc(OCCCN2CCC(C3Oc4ccccc4Cn4cccc43)CC2)cc1` (stereo not drawn) [11-{1-[3-(Phenoxy)propyl]piperidin-4-yl}-5H,11H-pyrrolo[2,1-c][1,4]benzoxazepine], the ED50 was found to be 4.2 mg/kg in test [2] and 1.2 mg/kg in test [1]. For `c1ccc(CCCN2CCC(C3Oc4ccccc4Cn4cccc43)CC2)cc1` (stereo not drawn) [11-{1-[3-(Phenyl)propyl]piperidin-4-yl}-5H,11H-pyrrolo[2,1-c][1,4[benzoxazepine oxalate], in test [1], the ED50 was determined as 2 mg/kg.
